Source: patent publication US20220411380A1, “ACID ADDITION SALT OF RORy REGULATOR” (JIANGSU HENGRUI MEDICINE CO., LTD., priority 2019, published 2022)
Blank lines part the entries; values can stand above or below the molecule they belong to.

Assays:
Type in all cases: physicochemical
[1] = DVS (dynamic vapor sorption) characterization; details: for Crystalline form before and after DVS (XRPD comparison): 0-95% humidity change; for DVS weight change / Hygroscopicity: 25° C., 20.0% RH to 80.0% RH; for Hygroscopicity: DVS
Description: DVS refers to dynamic vapor sorption: The measurement was conducted with a Surface Measurement Systems advantage 2 at 25° C., starting from 50% humidity in humidity range of 0%-95% with a step size of 10%. The judging criterion was that the mass change of each gradient dM/dT is less than 0.002 and TMAX is less than 360 min in two circles.

[2] = Long-term/accelerated stability study of crystalline form α of hydrochloride and crystalline form I of hydrobromide
Description: The crystalline form α of the hydrochloride of the compound of formula II was let stand in conditions of 25° C./60% RH and 40° C./75% RH to examine its stability.
The crystalline form I of the hydrobromide of the compound of formula II was let stand in conditions of 25° C./60% RH and 40° C./75% RH to examine its stability.

[3] = Influencing factor study of crystalline form α of hydrochloride and crystalline form I of hydrobromide
Description: Sample of the crystalline form α of the hydrochloride and the crystalline form I of the hydrobromide of the compound of formula II were let stand open to examine the stability of the samples in conditions of illumination (4500 Lux), high temperature (40° C. and 60° C.) and high humidity (RH 75% and RH 92.5%) in a period of 30 days.

[4] = accelerated test condition, 70% humidity
[5] = extreme condition, 90% humidity
[6] = normal storage condition, 60% humidity/25° C.

DVS weight change [1]: 1.731% | Hygroscopicity [1]: slightly hygroscopic | Vapor sorption [1, 4]: about 1.809% | Vapor sorption [1, 5]: about 3.077% | Vapor sorption [1, 6]: about 1.438%
SMILES: NC(=O)C[C@H](c1ccc(S(=O)(=O)CC2CC2)cc1)c1nc2cc(-c3ccccc3OC(F)F)c(Cl)cc2[nH]1.O=C(O)/C=C\C(=O)O
Crystalline form before and after DVS (XRPD comparison) [1]: crystalline form did not change during DVS

Chiral purity (%) ([2]; 25° C., 60% RH, Day 7): 99.297% | Color and appearance ([2]; 25° C., 60% RH, Day 7): White solid | Crystalline form ([2]; 25° C., 60% RH, Day 7): Not changed | Main peak purity (%) ([2]; 25° C., 60% RH, Day 7): 97.689% | Chiral purity (%) ([2]; 25° C., 60% RH, Day 14): 99.198% | Color and appearance ([2]; 25° C., 60% RH, Day 14): White solid | Crystalline form ([2]; 25° C., 60% RH, Day 14): Not changed | Main peak purity (%) ([2]; 25° C., 60% RH, Day 14): 97.697% | Bromide ion content (%) ([2]; 25° C., 60% RH, Month 1): 11.20% | Chiral purity (%) ([2]; 25° C., 60% RH, Month 1): 99.255% | Color and appearance ([2]; 25° C., 60% RH, Month 1): White solid | Crystalline form ([2]; 25° C., 60% RH, Month 1): Not changed | Main peak purity (%) ([2]; 25° C., 60% RH, Month 1): 97.649% | Bromide ion content (%) ([2]; 25° C., 60% RH, Month 2): 11.05% | Chiral purity (%) ([2]; 25° C., 60% RH, Month 2): 99.363% | Color and appearance ([2]; 25° C., 60% RH, Month 2): White solid | Crystalline form ([2]; 25° C., 60% RH, Month 2): Not changed | Main peak purity (%) ([2]; 25° C., 60% RH, Month 2): 97.661% | Chiral purity (%) ([2]; 25° C., 60% RH, Month 3): 99.283% | Color and appearance ([2]; 25° C., 60% RH, Month 3): White solid | Crystalline form ([2]; 25° C., 60% RH, Month 3): Not changed | Main peak purity (%) ([2]; 25° C., 60% RH, Month 3): 97.552% | Bromide ion content (%) ([2]; 25° C., 60% RH, Month 6): 11.82% | Chiral purity (%) ([2]; 25° C., 60% RH, Month 6): 99.228% | Color and appearance ([2]; 25° C., 60% RH, Month 6): White solid | Crystalline form ([2]; 25° C., 60% RH, Month 6): Not changed | Main peak purity (%) ([2]; 25° C., 60% RH, Month 6): 96.981% | Chiral purity (%) ([2]; 40° C., 75% RH, Day 7): 99.295% | Color and appearance ([2]; 40° C., 75% RH, Day 7): White solid | Crystalline form ([2]; 40° C., 75% RH, Day 7): Not changed | Main peak purity (%) ([2]; 40° C., 75% RH, Day 7): 97.661% | Chiral purity (%) ([2]; 40° C., 75% RH, Day 14): 99.174% | Color and appearance ([2]; 40° C., 75% RH, Day 14): White solid | Crystalline form ([2]; 40° C., 75% RH, Day 14): Not changed | Main peak purity (%) ([2]; 40° C., 75% RH, Day 14): 97.660% | Bromide ion content (%) ([2]; 40° C., 75% RH, Month 1): 11.49% | Chiral purity (%) ([2]; 40° C., 75% RH, Month 1): 99.262% | Color and appearance ([2]; 40° C., 75% RH, Month 1): White solid | Crystalline form ([2]; 40° C., 75% RH, Month 1): Not changed | Main peak purity (%) ([2]; 40° C., 75% RH, Month 1): 97.558% | Bromide ion content (%) ([2]; 40° C., 75% RH, Month 2): 10.93% | Chiral purity (%) ([2]; 40° C., 75% RH, Month 2): 99.328% | Color and appearance ([2]; 40° C., 75% RH, Month 2): White solid | Crystalline form ([2]; 40° C., 75% RH, Month 2): Not changed | Main peak purity (%) ([2]; 40° C., 75% RH, Month 2): 97.561% | Chiral purity (%) ([2]; 40° C., 75% RH, Month 3): 99.275% | Color and appearance ([2]; 40° C., 75% RH, Month 3): White solid | Crystalline form ([2]; 40° C., 75% RH, Month 3): Not changed | Main peak purity (%) ([2]; 40° C., 75% RH, Month 3): 97.259% | Bromide ion content (%) ([2]; 40° C., 75% RH, Month 6): 11.91% | Chiral purity (%) ([2]; 40° C., 75% RH, Month 6): 99.199% | Color and appearance ([2]; 40° C., 75% RH, Month 6): White solid | Crystalline form ([2]; 40° C., 75% RH, Month 6): Not changed | Main peak purity (%) ([2]; 40° C., 75% RH, Month 6): 96.412% | Bromide ion content (%) ([2]; Initial, 0): 11.75% | Chiral purity (%) ([2]; Initial, 0): 99.298% | Color and appearance ([2]; Initial, 0): White solid | Crystalline form ([2]; Initial, 0): Crystalline | Main peak purity (%) ([2]; Initial, 0): 97.689% | Stability (conclusion of long-term/accelerated study) ([2]; long term and acceleration, 6 months): good physical and chemical stability | Chiral purity (%) ([3]; 40° C., 7 days): 99.293% | Color and appearance ([3]; 40° C., 7 days): White solid | Crystalline form ([3]; 40° C., 7 days): Not changed | Main peak purity (%) ([3]; 40° C., 7 days): 97.716% | Chiral purity (%) ([3]; 40° C., 14 days): 99.165% | Color and appearance ([3]; 40° C., 14 days): White solid | Crystalline form ([3]; 40° C., 14 days): Not changed | Main peak purity (%) ([3]; 40° C., 14 days): 97.727% | Bromide ion content (%) ([3]; 40° C., 30 days): 11.73% | Chiral purity (%) ([3]; 40° C., 30 days): 99.251% | Color and appearance ([3]; 40° C., 30 days): White solid | Crystalline form ([3]; 40° C., 30 days): Not changed | Main peak purity (%) ([3]; 40° C., 30 days): 97.644% | Chiral purity (%) ([3]; 60° C., 7 days): 99.299% | Color and appearance ([3]; 60° C., 7 days): White solid | Crystalline form ([3]; 60° C., 7 days): Not changed | Main peak purity (%) ([3]; 60° C., 7 days): 97.645% | Chiral purity (%) ([3]; 60° C., 14 days): 99.187% | Color and appearance ([3]; 60° C., 14 days): White solid | Crystalline form ([3]; 60° C., 14 days): Not changed | Main peak purity (%) ([3]; 60° C., 14 days): 97.671% | Bromide ion content (%) ([3]; 60° C., 30 days): 11.50% | Chiral purity (%) ([3]; 60° C., 30 days): 99.263% | Color and appearance ([3]; 60° C., 30 days): White solid | Crystalline form ([3]; 60° C., 30 days): Not changed | Main peak purity (%) ([3]; 60° C., 30 days): 97.630% | Chiral purity (%) ([3]; 75% RH, 7 days): 99.293% | Color and appearance ([3]; 75% RH, 7 days): White solid | Crystalline form ([3]; 75% RH, 7 days): Not changed | Main peak purity (%) ([3]; 75% RH, 7 days): 97.687% | Chiral purity (%) ([3]; 75% RH, 14 days): 99.179% | Color and appearance ([3]; 75% RH, 14 days): White solid | Crystalline form ([3]; 75% RH, 14 days): Not changed | Main peak purity (%) ([3]; 75% RH, 14 days): 97.705% | Bromide ion content (%) ([3]; 75% RH, 30 days): 11.73% | Chiral purity (%) ([3]; 75% RH, 30 days): 99.274% | Color and appearance ([3]; 75% RH, 30 days): White solid | Crystalline form ([3]; 75% RH, 30 days): Not changed | Main peak purity (%) ([3]; 75% RH, 30 days): 97.676% | Chiral purity (%) ([3]; 92.5% RH, 7 days): 99.294% | Color and appearance ([3]; 92.5% RH, 7 days): White solid | Crystalline form ([3]; 92.5% RH, 7 days): Not changed | Main peak purity (%) ([3]; 92.5% RH, 7 days): 97.706% | Chiral purity (%) ([3]; 92.5% RH, 14 days): 99.175% | Color and appearance ([3]; 92.5% RH, 14 days): White solid | Crystalline form ([3]; 92.5% RH, 14 days): Not changed | Main peak purity (%) ([3]; 92.5% RH, 14 days): 97.701% | Bromide ion content (%) ([3]; 92.5% RH, 30 days): 11.55% | Chiral purity (%) ([3]; 92.5% RH, 30 days): 99.268% | Color and appearance ([3]; 92.5% RH, 30 days): White solid | Crystalline form ([3]; 92.5% RH, 30 days): Not changed | Main peak purity (%) ([3]; 92.5% RH, 30 days): 97.653% | Chiral purity (%) ([3]; 4500 Lux, 7 days): 99.297% | Color and appearance ([3]; 4500 Lux, 7 days): White solid | Crystalline form ([3]; 4500 Lux, 7 days): Not changed | Main peak purity (%) ([3]; 4500 Lux, 7 days): 97.683% | Chiral purity (%) ([3]; 4500 Lux, 14 days): 99.152% | Color and appearance ([3]; 4500 Lux, 14 days): White solid | Crystalline form ([3]; 4500 Lux, 14 days): Not changed | Main peak purity (%) ([3]; 4500 Lux, 14 days): 97.660% | Bromide ion content (%) ([3]; 4500 Lux, 30 days): 11.18% | Chiral purity (%) ([3]; 4500 Lux, 30 days): 99.243% | Color and appearance ([3]; 4500 Lux, 30 days): White solid | Crystalline form ([3]; 4500 Lux, 30 days): Not changed | Main peak purity (%) ([3]; 4500 Lux, 30 days): 97.626% | Bromide ion content (%) ([3]; Initial, 0 days): 11.75% | Chiral purity (%) ([3]; Initial, 0 days): 99.298% | Color and appearance ([3]; Initial, 0 days): White solid | Crystalline form ([3]; Initial, 0 days): Crystalline | Main peak purity (%) ([3]; Initial, 0 days): 97.689% | Stability (conclusion of influencing factor study) ([3]; illumination, 40° C. and 60° C., high humidities of 75% and 92.5%): good physical and chemical stabilities | DVS weight change [1]: 0.636% | Hygroscopicity [1]: slightly hygroscopic | Vapor sorption [1, 4]: about 0.702% | Vapor sorption [1, 5]: about 1.094% | Vapor sorption [1, 6]: about 0.589%
SMILES: Br.NC(=O)C[C@H](c1ccc(S(=O)(=O)CC2CC2)cc1)c1nc2cc(-c3ccccc3OC(F)F)c(Cl)cc2[nH]1
Crystalline form before and after DVS (XRPD comparison) [1]: crystalline form did not change during DVS

Crystalline form before and after DVS (XRPD comparison) [1]: crystalline form changed during DVS | DVS weight change [1]: 1.235% | Hygroscopicity [1]: slightly hygroscopic | Vapor sorption [1, 4]: about 1.954% | Vapor sorption [1, 5]: about 2.534% | Vapor sorption [1, 6]: about 1.755%
SMILES: Cl.NC(=O)C[C@H](c1ccc(S(=O)(=O)CC2CC2)cc1)c1nc2cc(-c3ccccc3OC(F)F)c(Cl)cc2[nH]1 [Crystalline form β of hydrochloride of compound of formula I]
